What was measured:
[1] = Cell viability assay (CellTiter-Glo), ARH-77; format: cell-based; conditions: human, ARH-77 cells (lymphoblast-like, MCL-1 independent), ARH-77, 24 hours, 1% FBS, read-out: Average pCC50 by molecule ARH-77 (converted)
Excerpt: (§1) The effect of various compounds of the invention on the viability of MV4-11 and ARH-77 cell lines was investigated, using the CTG protocol described below.
(§2) MV4-11 cell lines are derived from acute myeloid leukaemia and it is described in the literature as a MCL-1 dependent cell line, as opposed to lymphoblast-like ARH-77 cell line, which is described as independent of MCL-1 (Tron A E et al. Nat Commun. 2018; 9: 5341; Caenepeel S et al. Cancer Discov. 2018 December; 8(12): 1582-1597).
(§3) Cells (MV4-11 or ARH-77) were seeded on […] in a growth medium with 1% FBS. Next, compound stocks were pre-diluted in DMSO and added directly to the cell culture media (final DMSO concentration: 0.5%). Compound concentrations used in this assay: 1/3 dilutions starting at 30 μM (9 to 12 points). After 24 hours of incubation, cell viability was evaluated using CellTiter-Glo Luminescent Cell Viability Assay (Promega, cat #G7572). The luminescence signal was measured using a CLARIOstar Plus Multi-Mode Microplate Reader (574-590 nm).
(§4) Results were normalized to DMSO control. Collected data were analyzed using GraphPad Prism to calculate pCC50 values.

[2] = target: [MCL-1]-[compound of formula (I)]—[CRBN/DDB1] (Homo sapiens, UniProt Q07820+Q96SW2); assay: HTRF ternary complex formation assay; format: binding; conditions: hMcl-1 and CRBN, 180 min at 25° C.; read-out: HTRF ternary complex Average pEC50 by molecule (converted)
Experimental: The effect of the bifunctional compounds of the invention on the formation of a ternary complex composed of [MCL-1]-[compound of formula (I)]—[CRBN/DDB1] was investigated with HTRF ternary complex assay.
Mix of protein solution was prepared: • 48 nM hMcl-1 and 105.6 nM CRBN were prepared in PPI Europium detection buffer with 2 mM DTT. • Acceptor and donor stock solutions were diluted 100 times in PPI Europium detection buffer. Equal volumes of both reagents were mixed. Finally giving 3 nM of Streptavidin-Eu cryptate ([…]) and 6.67 nM of Anti-6×his-d2 ([…]).
5 μl of protein mix was dispensed to all wells. The tested compounds in dose-response were dispensed onto a white 384-well low volume plate (Greiner, 784075). DMSO was backfilled to all wells, resulting in a final DMSO content of 0.5%. Wells containing only DMSO served as a background. Next, 5 μl of solution with donor and acceptor was added to the wells.
The plate was sealed with transparent film and shaken using a VibroTurbulator for 60 sec at level 3. The plate was then spun down shortly (10 s, 1000 rcf) and incubated at 25° C. for 180 min.
The read-out was performed with plate reader (Pherastar, BMG Labtech) in time resolved fluorescence mode. Filterset: TR 337 665 620.
The results were analyzed as follows: • 1) an average of fluorescence for background signal was calculated and used as a negative control; • 2) raw fluorescence values for tested compounds were normalized against negative controls; • 3) bell shape curve was fitted to a gaussian distribution using a non-linear least squares Gauss-Newton algorithm; • 4) EC50 and pEC50 values were determined.

[3] = test system: MV4-11 cells; assay: Cell viability assay (CellTiter-Glo), MV4-11; format: cell-based; conditions: Homo sapiens, MV4-11, 24 hours, 1% FBS, read-out: Average pCC50 by molecule MV4-11 (converted)
Excerpt: as §1, §2, §3, §4

[MCL-1]-[compound of formula (I)]—[CRBN/DDB1], sequence (Q07820 whole entry): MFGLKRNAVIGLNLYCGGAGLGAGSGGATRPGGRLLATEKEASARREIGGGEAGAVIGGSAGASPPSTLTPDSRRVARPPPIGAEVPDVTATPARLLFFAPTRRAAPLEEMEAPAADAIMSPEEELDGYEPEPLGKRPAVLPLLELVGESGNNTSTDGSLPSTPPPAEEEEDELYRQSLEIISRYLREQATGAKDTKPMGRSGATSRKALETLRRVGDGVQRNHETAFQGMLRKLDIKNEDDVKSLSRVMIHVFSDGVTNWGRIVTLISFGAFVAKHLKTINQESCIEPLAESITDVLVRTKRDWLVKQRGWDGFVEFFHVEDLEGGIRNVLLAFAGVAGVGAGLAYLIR
[MCL-1]-[compound of formula (I)]—[CRBN/DDB1], sequence (Q96SW2 whole entry): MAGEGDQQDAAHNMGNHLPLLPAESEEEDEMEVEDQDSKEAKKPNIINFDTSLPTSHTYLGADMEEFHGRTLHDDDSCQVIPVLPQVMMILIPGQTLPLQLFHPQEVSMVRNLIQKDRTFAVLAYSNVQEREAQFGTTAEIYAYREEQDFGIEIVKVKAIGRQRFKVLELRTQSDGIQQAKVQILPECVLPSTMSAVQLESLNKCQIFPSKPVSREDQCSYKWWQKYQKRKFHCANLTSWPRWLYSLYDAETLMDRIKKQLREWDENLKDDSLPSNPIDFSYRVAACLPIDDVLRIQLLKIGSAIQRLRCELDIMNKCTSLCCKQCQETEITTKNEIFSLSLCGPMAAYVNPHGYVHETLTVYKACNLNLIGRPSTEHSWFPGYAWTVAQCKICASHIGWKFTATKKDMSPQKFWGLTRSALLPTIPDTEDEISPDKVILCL
[MCL-1]-[compound of formula (I)]—[CRBN/DDB1], sequence (Q16531 whole entry partner): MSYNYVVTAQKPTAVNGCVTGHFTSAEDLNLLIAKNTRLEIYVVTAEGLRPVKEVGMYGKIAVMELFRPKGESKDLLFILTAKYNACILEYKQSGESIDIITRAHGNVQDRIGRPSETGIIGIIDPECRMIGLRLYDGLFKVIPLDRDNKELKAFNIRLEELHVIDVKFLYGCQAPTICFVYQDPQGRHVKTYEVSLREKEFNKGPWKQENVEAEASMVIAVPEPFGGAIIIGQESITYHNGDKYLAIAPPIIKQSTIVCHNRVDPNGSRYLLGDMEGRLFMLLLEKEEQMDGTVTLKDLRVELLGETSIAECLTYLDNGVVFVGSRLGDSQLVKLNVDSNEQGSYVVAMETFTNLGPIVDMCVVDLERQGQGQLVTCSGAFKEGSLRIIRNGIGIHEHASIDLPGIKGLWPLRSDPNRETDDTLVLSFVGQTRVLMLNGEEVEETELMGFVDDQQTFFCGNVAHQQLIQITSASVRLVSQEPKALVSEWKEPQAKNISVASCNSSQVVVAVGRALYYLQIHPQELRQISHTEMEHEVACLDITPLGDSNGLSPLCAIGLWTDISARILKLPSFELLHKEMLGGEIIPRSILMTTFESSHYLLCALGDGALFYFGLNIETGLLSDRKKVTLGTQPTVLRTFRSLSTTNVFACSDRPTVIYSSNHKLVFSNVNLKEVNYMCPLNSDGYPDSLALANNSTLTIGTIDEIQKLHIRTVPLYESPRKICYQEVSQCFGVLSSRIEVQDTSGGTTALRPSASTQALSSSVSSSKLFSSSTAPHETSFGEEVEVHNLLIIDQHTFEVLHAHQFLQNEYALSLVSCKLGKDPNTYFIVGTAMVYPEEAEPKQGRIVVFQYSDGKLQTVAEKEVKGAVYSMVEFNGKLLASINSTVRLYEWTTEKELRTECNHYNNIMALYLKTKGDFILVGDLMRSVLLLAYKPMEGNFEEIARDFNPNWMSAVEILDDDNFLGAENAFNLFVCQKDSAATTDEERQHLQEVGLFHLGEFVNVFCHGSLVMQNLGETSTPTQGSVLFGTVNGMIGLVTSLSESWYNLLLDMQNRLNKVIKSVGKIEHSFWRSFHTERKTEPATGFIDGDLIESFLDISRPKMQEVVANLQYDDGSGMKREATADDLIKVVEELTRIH

Row | SMILES | CC50 at 24 h [1] [nM] | EC50 [2] [nM] | CC50 [3] [nM]
1 | Cc1nc2c(C(=O)NC3CCC(=O)NC3=O)cc(OCC(=O)N3CCN(CCn4c(C(=O)O)c(CCCOc5cccc6cc(F)ccc56)c5ccc(Cl)c(-c6c(C)nn(C)c6C)c54)CC3)cc2[nH]1 (stereo not drawn) [Compound 2, 6-Chloro-1-(2-(4-(2-((4-((2,6-dioxopiperidin-3-yl)carbamoyl)-2-methyl-1H-benzo[d]imidazol-6-yl)oxy)acetyl)piperazin-1-yl)ethyl)-3-(3-((6-fluoronaphthalen-1-yl)oxy)propyl)-7-(1,3,5-trimethyl-1H-pyrazol-4-yl)-1H-indole-2-carboxylic acid] | > 10000 | < 100 | < 100
2 | Cc1nn(C)c(C)c1-c1c(Cl)ccc2c(CCCOc3cccc4cc(F)ccc34)c(C(=O)O)n(CCN3CCC(CN4CCN(c5cc6c(cc5F)C(=O)N(C5CCC(=O)NC5=O)C6)CC4)CC3)c12 (stereo not drawn) [Compound 144, 6-Chloro-1-(2-(4-((4-(2-(2,6-dioxopiperidin-3-yl)-6-fluoro-1-oxoisoindolin-5-yl)piperazin-1-yl)methyl)piperidin-1-yl)ethyl)-3-(3-((6-fluoronaphthalen-1-yl)oxy)propyl)-7-(1,3,5-trimethyl-1H-pyrazol-4-yl)-1H-indole-2-carboxylic acid] | > 3160 | < 31.6 | < 100
3 | COc1ccc2c(c1OCC(=O)N1CCN(CCn3c(C(=O)O)c(CCCOc4cccc5cc(F)ccc45)c4ccc(Cl)c(-c5c(C)nn(C)c5C)c43)CC1)CN(C1CCC(=O)NC1=O)C2=O (stereo not drawn) [Compound 7, 6-Chloro-1-{2-[4-(2-{[2-(2,6-dioxopiperidin-3-yl)-5-methoxy-1-oxo-2,3-dihydro-1H-isoindol-4-yl]oxy}acetyl)piperazin-1-yl]ethyl}-3-{3-[(6-fluoronaphthalen-1-yl)oxy]propyl}-7-(1,3,5-trimethyl-1H-pyrazol-4-yl)-1H-indole-2-carboxylic acid] | > 10000 | < 100 | < 100
4 | Cc1nn(C)c(C)c1-c1c(Cl)ccc2c(CCCOc3cccc4cc(F)ccc34)c(C(=O)O)n(CCN3CCN(C(=O)COc4cc(N5CCCCC5)cc5c4CN(C4CCC(=O)NC4=O)C5=O)CC3)c12 (stereo not drawn) [Compound 14, 6-Chloro-1-{2-[4-(2-{[2-(2,6-dioxopiperidin-3-yl)-1-oxo-6-(piperidin-1-yl)-2,3-dihydro-1H-isoindol-4-yl]oxy}acetyl)piperazin-1-yl]ethyl}-3-{3-[(6-fluoronaphthalen-1-yl)oxy]propyl}-7-(1,3,5-trimethyl-1H-pyrazol-4-yl)-1H-indole-2-carboxylic acid] | > 3160 | < 31.6 | < 316

Source: patent US20260248927A1, “TARGETED PROTEIN DEGRADATION USING BIFUNCTIONAL COMPOUNDS THAT BIND UBIQUITIN LIGASE AND TARGET MCL-1 PROTEIN” (Captor Therapeutics S.A., priority 2022, published 2026)
